PubChem BioAssay AID192 (DTP/NCI, 2004)
Several values for one entry are separate records, joined by “and”; a condition that tells them apart may be missing. Equal entries are not always repeated. Toxic doses and inconclusive results are not listed.

Test system: BDF1 mice, B16 melanoma ip, median survival T/C
Assay: NCI In Vivo Anticancer Drug Screen. Data for tumor model B16 Melanoma (intraperitoneal) in B6D2F1 (BDF1) mice
Settings: endpoint: median survival time, higher = longer survival
Procedure, shortened: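 The ratio T/C compares compound-treated mice with vehicle-treated controls, using survival or tumor size as the endpoint in a transplantable tumor model.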

[1] = dose: 25.0 mg/kg/injection, schedule: Q01DX009 (ip), vehicle: Klucel (hydroxypropylcellulose) (HPC)
[2] = dose: 50.0 mg/kg/injection, schedule: Q01DX009 (ip), vehicle: Klucel (hydroxypropylcellulose) (HPC)
[3] = dose: 100.0 mg/kg/injection, schedule: Q01DX009 (ip), vehicle: Klucel (hydroxypropylcellulose) (HPC)
[4] = dose: 12.5 mg/kg/injection, schedule: Q01DX009 (ip), vehicle: Klucel (hydroxypropylcellulose) (HPC)
[5] = dose: 200.0 mg/kg/injection, schedule: Q01DX009 (ip), vehicle: Klucel (hydroxypropylcellulose) (HPC)
[6] = dose: 25.0 mg/kg/injection, schedule: Q01DX009 (ip), vehicle: saline with Tween-80
[7] = dose: 50.0 mg/kg/injection, schedule: Q01DX009 (ip), vehicle: saline with Tween-80
[8] = dose: 100.0 mg/kg/injection, schedule: Q01DX009 (ip), vehicle: saline with Tween-80
[9] = dose: 400.0 mg/kg/injection, schedule: Q01DX009 (ip), vehicle: saline with Tween-80
[10] = dose: 25.0 mg/kg/injection, schedule: Q01DX009 (ip), vehicle: water
[11] = dose: 50.0 mg/kg/injection, schedule: Q01DX009 (ip), vehicle: water
[12] = dose: 200.0 mg/kg/injection, schedule: Q01DX009 (ip), vehicle: saline with Tween-80
[13] = dose: 100.0 mg/kg/injection, schedule: Q04DX003 (ip), vehicle: Klucel (hydroxypropylcellulose) (HPC)
[14] = dose: 200.0 mg/kg/injection, schedule: Q04DX003 (ip), vehicle: Klucel (hydroxypropylcellulose) (HPC)
[15] = dose: 25.0 mg/kg/injection, schedule: Q01DX009 (ip), vehicle: saline
[16] = dose: 50.0 mg/kg/injection, schedule: Q01DX009 (ip), vehicle: saline
[17] = dose: 100.0 mg/kg/injection, schedule: Q01DX009 (ip), vehicle: saline
[18] = dose: 200.0 mg/kg/injection, schedule: Q01DX009 (ip), vehicle: saline
[19] = dose: 6.25 mg/kg/injection, schedule: Q01DX009 (ip), vehicle: saline

Compound: CC(NC(C)c1ccccc1)c1ccccc1 (stereo not given)
- T/C [1]: 93 % of control
- T/C [2]: 106 % of control
- T/C [3]: 96 % of control

Compound: N=C(N)SCc1cccc([N+](=O)[O-])c1
- T/C [4]: 93 % of control
- T/C [1]: 103 % of control
- T/C [2]: 97 % of control

Compound: COc1c(NC(=O)CC(C)=O)cccc1NC(=O)CC(C)=O
- T/C [2]: 120 % of control
- T/C [3]: 104 % of control
- T/C [5]: 97 % of control

Compound: CC1CN1P(=S)(Oc1ccccc1)N1CC1C (stereo not given)
- T/C [6]: 97 % of control
- T/C [7]: 95 % of control
- T/C [8]: 93 % of control and 97 % of control
- T/C [9]: 100 % of control

Compound: COc1cccc(Cc2ccncc2)c1OC
- T/C [10]: 104 % of control
- T/C [11]: 98 % of control
- T/C (dose: 100.0 mg/kg/injection, schedule: Q01DX009 (ip), vehicle: water): 98 % of control

Compound: COc1cc2cc[n+](C)cc2cc1OC
- T/C (dose: 6.25 mg/kg/injection, schedule: Q01DX009 (ip), vehicle: water): 95 % of control
- T/C (dose: 12.5 mg/kg/injection, schedule: Q01DX009 (ip), vehicle: water): 95 % of control
- T/C [10]: 97 % of control
- T/C [11]: 92 % of control

Compound: CCC(C(C)N1CC(=O)NC(=O)C1)N1CC(=O)NC(=O)C1 (stereo not given)
- T/C (dose: 0.06 mg/kg/injection, schedule: Q01DX009 (ip), vehicle: Klucel (hydroxypropylcellulose) (HPC)): 107 % of control
- T/C (dose: 0.13 mg/kg/injection, schedule: Q01DX009 (ip), vehicle: Klucel (hydroxypropylcellulose) (HPC)): 108 % of control
- T/C (dose: 0.25 mg/kg/injection, schedule: Q01DX009 (ip), vehicle: Klucel (hydroxypropylcellulose) (HPC)): 109 % of control and 124 % of control
- T/C (dose: 0.25 mg/kg/injection, schedule: Q04DX003 (ip), vehicle: Klucel (hydroxypropylcellulose) (HPC)): 105 % of control
- T/C (dose: 0.5 mg/kg/injection, schedule: Q01DX009 (ip), vehicle: Klucel (hydroxypropylcellulose) (HPC)): 120 % of control
- T/C (dose: 0.5 mg/kg/injection, schedule: Q04DX003 (ip), vehicle: Klucel (hydroxypropylcellulose) (HPC)): 114 % of control
- T/C (dose: 1.0 mg/kg/injection, schedule: Q04DX003 (ip), vehicle: Klucel (hydroxypropylcellulose) (HPC)): 115 % of control and 121 % of control
- T/C (dose: 8.0 mg/kg/injection, schedule: Q04DX003 (ip), vehicle: Klucel (hydroxypropylcellulose) (HPC)): 156 % of control

Compound: CN(Cc1ccccc1)/N=N/c1nc[nH]c1C(N)=O
- T/C [6]: 111 % of control
- T/C [7]: 111 % of control
- T/C [8]: 111 % of control
- T/C [12]: 110 % of control

Compound: CS(=O)(=O)c1cnc2ccccc2n1
- T/C [6]: 94 % of control
- T/C [7]: 86 % of control

Compound: CNc1ccc(S(=O)(=O)O)cc1
- T/C [13]: 100 % of control
- T/C [14]: 100 % of control
- T/C (dose: 400.0 mg/kg/injection, schedule: Q04DX003 (ip), vehicle: Klucel (hydroxypropylcellulose) (HPC)): 86 % of control

Compound: CN(C)CCN1C(=O)c2cccc3cc(N)cc(c23)C1=O
- T/C (dose: 1.0 mg/kg/injection, schedule: Q01DX009 (ip), vehicle: acid diluted with saline): 99 % of control
- T/C (dose: 2.0 mg/kg/injection, schedule: Q01DX009 (ip), vehicle: acid diluted with saline): 110 % of control
- T/C (dose: 4.0 mg/kg/injection, schedule: Q01DX009 (ip), vehicle: acid diluted with saline): 114 % of control
- T/C (dose: 8.0 mg/kg/injection, schedule: Q01DX009 (ip), vehicle: acid diluted with saline): 122 % of control
- T/C (dose: 16.0 mg/kg/injection, schedule: Q01DX009 (ip), vehicle: acid diluted with saline): 155 % of control

Compound: CCCCNC(=O)Nc1cc(C)ccc1C
- T/C [3]: 100 % of control
- T/C [5]: 100 % of control

Compound: NC(CC(=O)O)C(=O)OCc1ccccc1 (stereo not given)
- T/C [15]: 95 % of control
- T/C [16]: 108 % of control
- T/C [17]: 114 % of control
- T/C [18]: 105 % of control

Compound: Cc1ccc2cc3c(ccc4ccccc43)c3c2c1CC3
- T/C [16]: 124 % of control
- T/C [8]: 120 % of control
- T/C (dose: 100.0 mg/kg/injection, schedule: Q04DX003 (ip), vehicle: saline with Tween-80): 110 % of control
- T/C [12]: 114 % of control
- T/C (dose: 200.0 mg/kg/injection, schedule: Q04DX003 (ip), vehicle: saline with Tween-80): 110 % of control
- T/C (dose: 400.0 mg/kg/injection, schedule: Q04DX003 (ip), vehicle: saline with Tween-80): 115 % of control

Compound: CCN(CC)CCSC(CO)c1ccccc1 (stereo not given)
- T/C [1]: 103 % of control
- T/C [2]: 96 % of control
- T/C [3]: 93 % of control

Compound: CC(C)CNC(=O)c1ccc(N=NN(C)Cc2ccncc2)cc1
- T/C [6]: 93 % of control
- T/C [7]: 97 % of control
- T/C [8]: 103 % of control

Compound: COc1cc(NS(C)(=O)=O)ccc1Nc1c2cccc(C)c2nc2c(C)cccc12
- T/C (dose: 0.8 mg/kg/injection, schedule: Q01DX009 (ip), vehicle: other): 115 % of control
- T/C (dose: 1.6 mg/kg/injection, schedule: Q01DX009 (ip), vehicle: other): 115 % of control
- T/C (dose: 6.25 mg/kg/injection, schedule: Q01DX009 (ip), vehicle: saline sonified): 158 % of control
- T/C (dose: 12.5 mg/kg/injection, schedule: Q01DX009 (ip), vehicle: other): 189 % of control
- T/C (dose: 12.5 mg/kg/injection, schedule: Q01DX009 (ip), vehicle: saline sonified): 204 % of control
- T/C (dose: 25.0 mg/kg/injection, schedule: Q01DX009 (ip), vehicle: other): 208 % of control
- T/C (dose: 25.0 mg/kg/injection, schedule: Q01DX009 (ip), vehicle: saline sonified): 183 % of control
- T/C (dose: 25.0 mg/kg/injection, schedule: Q04DX003 (ip), vehicle: other): 166 % of control
- T/C (dose: 50.0 mg/kg/injection, schedule: Q01DX001 (ip), vehicle: saline sonified): 169 % of control
- T/C (dose: 50.0 mg/kg/injection, schedule: Q04DX003 (ip), vehicle: other): 156 % of control
- T/C (dose: 100.0 mg/kg/injection, schedule: Q01DX001 (ip), vehicle: saline sonified): 165 % of control
- T/C (dose: 200.0 mg/kg/injection, schedule: Q01DX001 (ip), vehicle: saline sonified): 152 % of control

Compound: CC[N+](CC)(CC)CCC[n+]1ccc(/C=N\O)cc1
- T/C [15]: 111 % of control
- T/C [16]: 111 % of control
- T/C [17]: 111 % of control

Compound: CC(C)C1OC(=O)/C=C/C=C/C=C/C=C/C=C/CC(O)C(C)C(O)CC(O)CC(O)CC(O)CC(O)CC(O)CC(O)/C=C/C1C (stereo not given)
- T/C [19]: 98 % of control

Compound: CCC(=O)Oc1[nH]c(C)c(C(C)=O)c1C
- T/C [8]: 102 % of control
- T/C [12]: 100 % of control
- T/C [9]: 95 % of control

Compound: O=P(O)(O)OCC(O)CCl (stereo not given)
- T/C [16]: 110 % of control
- T/C [17]: 103 % of control
- T/C [18]: 103 % of control

Compound: CC/C(=C(/CC)c1ccc(O)cc1)c1ccc(O)cc1
- T/C (dose: 6.25 mg/kg/injection, schedule: Q01DX009 (ip), vehicle: saline with Tween-80): 89 % of control
- T/C (dose: 12.5 mg/kg/injection, schedule: Q01DX009 (ip), vehicle: saline with Tween-80): 89 % of control
- T/C [6]: 89 % of control and 102 % of control
- T/C [7]: 100 % of control
- T/C [12]: 97 % of control

Compound: Cc1[nH]c(=O)[nH]c(=O)c1C
- T/C (dose: 50.0 mg/kg/injection, schedule: Q04DX003 (ip), vehicle: Klucel (hydroxypropylcellulose) (HPC)): 88 % of control
- T/C [3]: 88 % of control
- T/C [13]: 97 % of control
- T/C [5]: 91 % of control
- T/C [14]: 91 % of control

Compound: NN(CC1=COc2ccccc2O1)Cc1ccccc1
- T/C [4]: 94 % of control
- T/C [1]: 94 % of control
- T/C [2]: 91 % of control
- T/C [3]: 105 % of control
- T/C [14]: 91 % of control

Compound: CC(O)c1ccc[n+](CCc2cn(C)c3ccccc23)c1 (stereo not given)
- T/C [19]: 107 % of control
- T/C (dose: 12.5 mg/kg/injection, schedule: Q01DX009 (ip), vehicle: saline): 113 % of control
- T/C [15]: 104 % of control

Compound: COC(COC(N)=O)C1=C(N2CC2)C(=O)C(C)=C(N2CC2)C1=O (stereo not given)
- T/C (dose: 0.03 mg/kg/injection, schedule: Q01DX009 (ip), vehicle: saline): 93 % of control and 107 % of control and 122 % of control
- T/C (dose: 0.06 mg/kg/injection, schedule: Q01DX009 (ip), vehicle: saline): 101 % of control and 114 % of control
- T/C (dose: 0.12 mg/kg/injection, schedule: Q01DX009 (ip), vehicle: saline): 123 % of control
- T/C (dose: 0.25 mg/kg/injection, schedule: Q01DX009 (ip), vehicle: saline): 163 % of control
- T/C (dose: 0.5 mg/kg/injection, schedule: Q01DX009 (ip), vehicle: saline): 179 % of control and 196 % of control
